In brackets after ≈: the same amount, converted by molar mass. Activity calls are given as the source filed them. Unless noted, the calls are words filed in the database; no cut-off is given here.

The results in this text go back to ChEMBL document CHEMBL4359841, “Late-Stage Functionalization of Platensimycin Leading to Multiple Analogues with Improved Antibacterial Activity in Vitro and in Vivo” (2019).

For experiment [1], the system named is Staphylococcus aureus. Nature of the experiment: Inhibition of FabB/FabF in methicillin-resistant Staphylococcus aureus assessed as antibacterial activity at 5 ug/disk after 18 hrs by agar disk diffusion method.
Experiment [2] concerns Staphylococcus aureus. Kind of experiment: Inhibition of FabB/FabF in methicillin-resistant Staphylococcus aureus assessed as antibacterial activity at 2 ug/disk after 18 hrs by agar disk diffusion method. A general note: A growth-free zone around the sample is the usual read-out of agar diffusion tests.
In experiment [3] the test system is Staphylococcus aureus. Kind of experiment: Inhibition of FabB/FabF in Staphylococcus aureus ATCC 29213 assessed as antibacterial activity after 16 hrs by agar dilution method. (In agar dilution, organisms are placed on agar that contains the substance at set levels.)
Experiment [4] has as its system Staphylococcus aureus. Nature of the experiment: Inhibition of FabB/FabF in methicillin-sensitive Staphylococcus aureus assessed as antibacterial activity after 16 hrs by agar dilution method.
Experiment [5] deals with Staphylococcus aureus. Kind of experiment: Inhibition of FabB/FabF in methicillin-resistant Staphylococcus aureus assessed as antibacterial activity after 16 hrs by agar dilution method.
In experiment [6] the test system is Staphylococcus aureus. Nature of the experiment: Antibacterial activity against methicillin-resistant Staphylococcus aureus infected in C57BL/6J mouse model of peritonitis assessed as mouse survival at 10 mg/kg, ip dosed at 1 hr and 5 hrs post infection and measured for 7 days relative to control. The experiment is classed as functional.
Experiment [7] relates to Staphylococcus aureus. Nature of the experiment: Antibacterial activity against methicillin-resistant Staphylococcus aureus infected in C57BL/6J mouse model of peritonitis assessed as mouse survival at 20 mg/kg, ip dosed at 1 hr and 5 hrs post infection and measured for 7 days relative to control. It is filed as functional.
In experiment [8] the test system is Staphylococcus aureus. Kind of experiment: Antibacterial activity against methicillin-resistant Staphylococcus aureus infected in BALB/c mouse model of skin infection assessed as bacterial load in skin lesions at 2 mg administered topically as ointment twice daily for 7 days and measured at 24 hrs post last dose (7.9 +/- 0.9 x 10^8 CFU/g). The experiment is classed as functional.

Experiment [9] relates to Staphylococcus aureus. Nature of the experiment: Antibacterial activity against methicillin-resistant Staphylococcus aureus infected in BALB/c mouse model of skin wound assessed as reduction in appearance of secondary scald at 2 mg administered topically as ointment twice daily for 7 days and measured after 24 hrs by visual inspection method. The experiment is classed as functional, organism-based.

Experiment [10] concerns Staphylococcus aureus. Kind of experiment: Antibacterial activity against methicillin-resistant Staphylococcus aureus infected in BALB/c mouse model of skin wound assessed as reduction in detachment of epidermis from dermis at 2 mg administered topically as ointment twice daily for 7 days and measured after 24 hrs by visual inspection method. It is filed as functional, organism-based.

Experiment [11] relates to Staphylococcus aureus. Kind of experiment: Antibacterial activity against methicillin-resistant Staphylococcus aureus infected in BALB/c mouse model of skin wound assessed as retainment of dermis layers at 2 mg administered topically as ointment twice daily for 7 days and measured and after 24 hrs by HE staining analysis. It is filed as functional, organism-based.
Experiment [12] deals with Staphylococcus aureus. Nature of the experiment: Antibacterial activity against methicillin-resistant Staphylococcus aureus infected in BALB/c mouse model of skin wound assessed as retainment of fat layers at 2 mg administered topically as ointment twice daily for 7 days and measured after 24 hrs by HE staining analysis. It is filed as functional, organism-based.

Turning to `Cc1ccc(SC2=C[C@]34C[C@H]5C[C@H](O[C@@]5(C)C3)[C@H]4[C@](C)(CCC(=O)Nc3c(O)ccc(C(=O)O)c3O)C2=O)cc1`, in the experiment on Staphylococcus aureus [1], the “antibacterial activity (disk diffusion, qualitative)” value is “Active”. Besides, the inhibition result in the experiment with Staphylococcus aureus [2] is “Active”. Moreover, the MIC stood at 0.5 µg/mL (≈ 0.887 µM) in the experiment on Staphylococcus aureus [3], 0.25 µg/mL (≈ 0.444 µM) in the experiment on Staphylococcus aureus [4] and 0.25 µg/mL (≈ 0.444 µM) in the experiment on Staphylococcus aureus [5]. Further, the survival at 10 mg/kg in the experiment on Staphylococcus aureus [6] was greater than 60%. Moreover, in the experiment with Staphylococcus aureus [7], the survival at 20 mg/kg was 80%.
Take `C/C(=C\C(=O)OCCCCCCCCC(=O)O)C[C@@H]1OC[C@H](C[C@@H]2O[C@H]2[C@@H](C)[C@H](C)O)[C@@H](O)[C@H]1O` [MUPIROCIN]: the Activity in the experiment on Staphylococcus aureus [8] was found to be 6.5 ×10⁶ CFU/g. Besides, the outcome in the experiment with Staphylococcus aureus [9], in the experiment with Staphylococcus aureus [10], in the experiment with Staphylococcus aureus [11] and with Staphylococcus aureus [12] was Active.
